Reference: ChEMBL document CHEMBL1150751, “Bioactive components of Allamanda schottii” (J Nat Prod, 1988)
Converted amounts (≈) assume the structure as drawn. The source made the active and inactive calls. The rule behind the calls is not given here.

Legend:
[1] = tested on: Agrobacterium tumefaciens; assay: Antitumor activity against Agrobacterium tumefaciens-induced crown gall tumor in potato tubers by potato disk assay; assay type: functional
[2] = Cytotoxicity against human 9KB cells; assay type: functional; conditions: read-out: ED50 (the source's name)
P388 = assay: Antileukemic activity against mouse P388 cells xenografted in mouse; assay type: functional
Artemia = assay: Toxicity in brine shrimp; assay type: organism-based; conditions: in vivo

Structure (SMILES)	inhibition (INH) [1]	EC50 [2]	T/C (P388)	LC50 (Artemia)	inhibition [1]
C/C=C1/C(=O)O[C@@]23C=C[C@H]4[C@@H](C(=O)OC)[C@H](O)O[C@@H](O[C@H]12)[C@H]43 [ALLAMANDIN]	51%	2.1 µg/mL (≈ 6.81 µM)	145%	21.3 ppm	–
C/C=C1/C(=O)O[C@@]23C=C[C@H]4C[C@H](O)O[C@@H](O[C@H]12)[C@H]43 [ALLAMCIN]	–	–	–	> 1000 ppm	inactive
C/C=C1\C(=O)O[C@]23C=C[C@@H]4C(C(=O)OC)=CO[C@H](O[C@@H]12)[C@@H]43 [ISOPLUMERICIN]	44%	2.7 µg/mL (≈ 9.3 µM)	145%	1.7 ppm	–
COc1cc([C@H]2OC[C@H]3[C@@H]2CO[C@H]3c2ccc(O)c(OC)c2)ccc1O [PINORESINOL]	–	100 µg/mL (≈ 279 µM)	–	377 ppm	inactive
C/C=C1/C(=O)O[C@]23C=C[C@@H]4C(C(=O)OC)=CO[C@H](O[C@@H]12)[C@@H]43 [PLUMERICIN]	44%	2.6 µg/mL (≈ 8.96 µM)	–	1.7 ppm	–
COc1cc2ccc(=O)oc2cc1OC [SCOPARONE]	–	61 µg/mL (≈ 296 µM)	–	349 ppm	inactive
COc1cc2ccc(=O)oc2cc1O [SCOPOLETIN]	20%	16 µg/mL (≈ 83.3 µM)	133%	55 ppm	–
